pIC50: −log10 of the molar value. Read-outs that look alike come from different tables or passages of the source.
Tests used:
Human PBMC [1] = experiment: Cytokine induction by ORN in human PBMC (ELISA of supernatants); type: cell-based; conditions: human PBMC (n=3); for IFN-alpha cytokine induction, 8-modified nucleotide at the ORN 5′ end: FIG. 3, compared to the unmodified ORN (SEQ ID NO:8 and 11); for IFN-alpha cytokine induction, effect of the position of 8-Oxo-rG: FIG. 2, versus control SEQ ID NO:8
Method: (§1) Cell purification Peripheral blood buffy coat preparations from healthy human donors were obtained from the Blood Bank of the University of Düsseldorf (Germany) and PBMC were purified by centrifugation over Ficoll-Hypaque (Sigma). Cells were cultured in a humidified incubator at 37° C. in RPMI 1640 medium supplemented with 5% (v/v) heat inactivated human AB serum (BioWhittaker) or 10% (v/v) heat inactivated FCS, 2 mM L-glutamine, 100 U/ml penicillin and 100 μg/ml streptomycin (all from Sigma).
(§2) Cytokine detection PBMC were resuspended at a concentration of 5×10^6 cells/ml and added to 96 well round-bottomed plates (250 μl/well). PBMC were incubated with various ODN, ORN or nucleoside concentrations and culture supernatants (SN) were collected after the indicated time points. If not used immediately, SN were stored at −20° C. until required. For inhibitory experiments, cells were stimulated with the indicated TLR ligand concentration and nucleoside or ORN added. In some experiments, the second modified ORN was added 1 h after the start of the cell culture.
(§3) Amounts of cytokines in the SN were assessed using a commercially available ELISA Kit for IL-12p40 (from BD Biosciences, Heidelberg, Germany), IFN-γ and TNF-α (from Diaclone, Besancon, France) or an in-house ELISA for IFN-α developed using commercially available antibodies (PBL, New Brunswick, N.J., USA). For analysis of a broad set of cytokines and chemokines, multiplex analysis with a luminex system from Bio-Rad (Munich, Germany) and Multiplex kits from Biosource (Solingen, Germany) was performed.
Human PBMC (n=3) were stimulated with 8-Oxo-rG (a C-8 substituted guanosine) modified ORN (SEQ ID NO:1-4) and an unmodified ORN (SEQ ID NO:8). Supernatants were collected and cytokines IFN-alpha (FIG. 1a), IL-12p40 (FIG. 1b) and TNF-alpha (FIG. 1c) were measured.
Human PBMC (n=3) were stimulated with the indicated ORN with a single 8-Oxo-rG at different positions of the ORN (SEQ ID NO:1-4) and the […] negative control (SEQ ID NO:8). Supernatants were collected and IFN-alpha measured.
Human PBMC (n=3) were stimulated with the indicated ORN with a single 8-Oxo-rG/Dg (SEQ ID NO:1, 5), 8-Bromo-dG (SEQ ID NO:7) or Immunosine (Isatoribine) (SEQ ID NO:6) (with a 5′-5′ linkage) at the 5′ end of the ORN and IFN-alpha measured. […] Similar data were obtained for 8-Bromo-rG (data not shown). In addition, even the linkage of a 8-modified dA or rA (data not shown) results in an, although only slight increase of the cytokine induction.

Human PBMC [2] = experiment: Effect of Ribavirin on CpG ODN-induced cytokines in human PBMC co-culture; type: cell-based; conditions: for pIC50: Homo sapiens, PBMC, calculated IC50 upon addition of Ribavirin to cultures containing 1 μM SEQ ID NO: 13
Method: as §1, §2, §3
The observations were particularly noted at lose doses of Ribavirin.

T cell IFN-γ production = experiment: In vivo treatment of mice with CpG ODN and/or RBV, ex vivo anti-CD3 induced IFN-gamma production of inguinal lymph node cells (ELISA); conditions: for T cell IFN-γ production ex-vivo after in vivo treatment with a single agent: SEQ ID NO. 14 100 micrograms SC or RBV 0.5 mg/kg IP alone, lymph node Day 6, ELISA Day 8, FIG. 4
Method: (§4) We repeated the experiment with a lower dose of RBV in vivo (0.5 mg/kg IP).
(§5) Mice were injected with SEQ ID NO. 14 (100 micrograms SC), RBV (0.5 mg/kg IP) or SEQ ID NO. 14 and RBV. RBV was administered in vivo either at day 0 or day 5 and CpG was administered at day O, Samples were isolated at Day 6 from the inguinal lymph node and maintained in medium on anti-CD3 coated plated in the presence of 1-16 μM RBV. On Day 8 an ELISA assay was performed to detect IFN-gamma.

[3] = system: CD3-mediated IFN-γ production; experiment: Ex vivo anti-CD3 stimulation of lymph node cells in the presence of RBV, IFN-gamma ELISA; type: cell-based, Mice
Method: as §4, §5
The ex vivo effect of RBV on CD3-mediated IFN-γ production independently of prior ODN/RBV treatment was examined. Similar to the data described above, low concentrations of RBV in vitro increased IFN-γ levels independently of previous in vivo treatments (FIG. 5A).

[4] = system: bone marrow (BM) derived dendritic cells (DCs); experiment: Cytokine production of bone marrow derived dendritic cells treated with SEQ ID NO. 14 and/or RBV; type: cell-based
Method: Similar experiments were performed using bone marrow (BM) derived dendritic cells (DCs). BM-derived DC maintained in GM-CSF were treated with SEQ ID NO. 14, RBV (1 μM, 5 μM, 10 μM, 100 μM, or 120 μM) or with SEQ ID NO. 14 and RBV. At 4, 24 and 72 hours samples were tested for cytokine, IL-10 (FIG. 6), IL-12p40 (FIG. 7A), IL-12p70 (FIG. 7B) and TNF (data not shown). No effects of RBV alone at 120 μM were observed. SEQ ID NO. 14 induced IL-12, IL-10 and TNF. RBV decreased IL-10 and TNF but increased IL-12 (at 72 h only). RBV decreased SEQ ID NO. […].

C26 SC mouse model = experiment: C26 SC mouse cancer model, survival; type: in vivo; conditions: 100 micrograms ODN intra/peri tumor at days 7, 14, 21; 0.5 mg/kg RBV IP on same days; as of days 30-40; FIG. 8
Method: C26 SC mouse model was treated with SEQ ID NO. 14 and RBV (100 micrograms ODN intra/peri tumor at days 7, 14, 21 and 0.5 mg/kg RBV IP on same days).

[5] = human PBMC stimulated with CpG ODN (SEQ ID NO:15 as printed), increasing doses of Ribavirin
[6] = SEQ ID NO. 14 alone, BM-derived DC in GM-CSF

iIM*rU*rU*rG*rU*rG*rU (5' isatoribine via 5'-5' linkage, phosphorothioate, as printed in the source, key not given here) [SEQ ID NO:6, ORN with Immunosine (Isatoribine) (with a 5′-5′ linkage) at the 5′ end]
IFN-alpha cytokine induction, 8-modified nucleotide at the ORN 5′ end (Human PBMC [1]): increased cytokine induction

NC(=O)c1ncn([C@@H]2O[C@H](CO)[C@@H](O)[C@H]2O)n1 [Ribavirin]
pIC50 (Human PBMC [2]; read-out: IC50 IFN-alpha): 3.00 | pIC50 (Human PBMC [2]; read-out: IC50 IL-6): 3.49 | pIC50 (Human PBMC [2]; read-out: IC50 IL-10): 4.24 | effect on the CpG-induced IL10 induction (Human PBMC [2]; [5]): suppressive effect | suppressive effect with respect to IFN-alpha (Human PBMC [2]; [5]): not observed | effect of RBV on IFN-γ production when CpG ODN was also injected (T cell IFN-γ production; RBV 0.5 mg/kg IP with SEQ ID NO. 14 100 micrograms SC, FIG. 4B): greatly enhanced | T cell IFN-γ production ex-vivo after in vivo treatment with a single agent (T cell IFN-γ production): small effect | ex vivo IFN-γ CD3-induced production after in vivo RBV (T cell IFN-γ production; initial experiment, 10 mg/kg intraperitoneal (IP) RBV): no effect in vivo of RBV and possibly even a slight decrease | IFN-γ production, ex vivo anti-CD3 stimulation in the presence of RBV ([3]; initial experiment, only at rather low concentrations of RBV (1-5 μM)): increase IFN-γ production | CD3-mediated IFN-γ levels, RBV in vitro ([3]; low concentrations of RBV in vitro, independently of previous in vivo treatments, FIG. 5A): increased | effect of RBV on SEQ ID NO. 14-induced IL-12p40 ([4]; BM-derived DC, FIG. 7A): decreased | effect of RBV on SEQ ID NO. 14-induced IL-12p70 ([4]; BM-derived DC, FIG. 7B): increased IL-12p70 (slightly) | effect of RBV on SEQ ID NO. 14-induced IL-10 ([4]; BM-derived DC, RBV 1-120 μM with SEQ ID NO. 14, FIG. 6): decreased | effect of RBV on IL-12 ([4]; BM-derived DC, RBV with SEQ ID NO. 14, at 72 h only): increased | effect of RBV on TNF ([4]; BM-derived DC, RBV with SEQ ID NO. 14, data not shown): decreased | cytokines (IL-10, IL-12p40, IL-12p70, TNF), RBV alone ([4]; RBV alone at 120 μM, 4, 24 and 72 hours): No effects

rO*rU*rU*rG*rU*rG*rU (8-oxo-rG, phosphorothioate linkages, as printed in the source, key not given here) [SEQ ID NO:3, ORN with a single 8-Oxo-rG at the 5′ position]
IFN-alpha cytokine induction, effect of the position of 8-Oxo-rG (Human PBMC [1]): increased cytokine induction

O*rU*rU*rG*rU*rG*rU (8-oxo-dG at 5' end, phosphorothioate linkages, as printed in the source, key not given here) [SEQ ID NO:5, ORN with a single 8-Oxo-rG/Dg at the 5′ end]
IFN-alpha cytokine induction, 8-modified nucleotide at the ORN 5′ end (Human PBMC [1]): increased cytokine induction

rO*rU*rU*rO*rU*rO*rU [SEQ ID NO:1]
IFN-alpha cytokine induction, effect of the position of 8-Oxo-rG (Human PBMC [1]): increased cytokine induction | IFN-alpha cytokine induction, 8-modified nucleotide at the ORN 5′ end (Human PBMC [1]): increased cytokine induction

TCCATGACGTTCCTGATGC (chemistry not given here) [SEQ ID NO. 14, CpG ODN]
T cell IFN-γ production ex-vivo after in vivo treatment with a single agent (T cell IFN-γ production): increased | IL-10 induction [4, 6]: induced | IL-12 induction [4, 6]: induced | TNF induction [4, 6]: induced | survival (C26 SC mouse model): prolonged survival

From patent publication US20100189772A1, “Compositions of TLR ligands and antivirals” (COLEY PHARMACEUTICAL GROUP, INC, priority 2006, published 2010)
